# Source: patent US20170157301A1, “LEOLIGIN DERIVATIVES AS SMOOTH MUSCLE CELL PROLIFERATION INHIBITORS” (TECHNISCHE UNIVERSITAET WIEN, priority 2014, published 2017)
# Tested on: SMCs in relation to ECs
# Assay: activity ratio: efficiency towards SMCs / efficiency towards ECs
# Format: cell-based
# Conditions: activity ratio class; order in Table 1 follows the calculated values
# Method: For determination of vascular SMC proliferation, 0.5×10^4 viable rat aortic SMCs per well were seeded in SMC growth medium (DMEM/F12 medium with 20% serum, 30 μg/mL Gentamicin and 15 ng/mL Amphotericin) in 96-well plates. 24 h later, the medium was removed, the cells were washed once with SMC starvation medium (DMEM/F12 medium with 0.1% serum, 0.2% BSA, 30 μg/mL Gentamicin and 15 ng/mL Amphotericin) and incubated in starvation medium for further 24 h.
# The quiescent cells were then pretreated for 30 min with the test compounds and induced to proliferate with 20 ng/mL platelet-derived growth factor (PDGF). Unstimulated cells were utilized for normalization and estimation of the basal level of proliferation. The final concentration of the solvent vehicle, dimethyl sulfoxide (DMSO), was the same (0.1%) in all wells. 48 h later, the SMC proliferation was quantified by resazurin dye conversion for 2 h as previously described (H. Joa et al., J. Nat. Prod. 74(6), 1513-6 (2011)).
# For determination of endothelial cell proliferation, 0.5×10^4 HUVECtert immortalized human umbilical vein endothelial cells (H. B. Schiller et al., Mol. Biol. Cell. 20(3), 745-756 (2009)) were seeded in 96-well plates for 24 h in HUVEC Complete Medium (EBM™ growth medium supplemented with 10% fetal bovine serum, EBM™ SingleQuots (Lonza, Basel, Switzerland), 100 U/mL benzylpenicillin, 100 μg/mL streptomycin, and 1% amphotericin). Afterwards, the medium was exchanged with fresh HUVEC Complete Medium and cells were treated with the indicated compounds for 48 h. After the end of the incubation period, the medium was removed, the cells were washed once with 200 μL/well PBS, and treated with 150 μL HUVEC Complete Medium containing 10 μg/mL resazurin. 2 h later, the fluorescence was measured at a wavelength of 580 nm, with excitation wavelength 535 nm in a 96-well plate reader (Tecan GENios Pro; Tecan Group Ltd., Mannedorf, Switzerland).
# In every case, the percentage of viable cells was subtracted from 1, in order to obtain a measure of efficiency of the test compounds towards each particular type of cells, and subsequently, the efficiency quotient towards SMCs and ECs was calculated and taken as the “activity ratio” and thus as a measure of selective efficiency of each test compound towards SMCs in relation to ECs. For example, the synthetic Leoligin with the bio ID 2418 prepared in Comparative Example 27 as compound 10-22 gave the following results:
# Due to the usual fluctuations in determining surviving cells, which amount to approximately ±10%, and due to the relatively strong resulting fluctuations in calculating quotients—especially if the inhibitory effect of said novel compounds towards ECs is very poor—said threshold value of 1.50 for the activity ratio, as already mentioned above, was introduced.
# In the following, a table listing every compound prepared in examples and comparative Examples for which an activity ratio (a.r.) of >1.0 was determined, is given.
row,SMILES,a.r. code
1,"CCC(CC)C(=O)OC[C@H]1[C@@H](Cc2ccc(OC)c(OC)c2)CO[C@@H]1c1ccc(OC)c(OC)c1 [Comparative Example 44, ((2S,3R,4R)-4-(3,4-dimethoxybenzyl)-2-(3,4-dimethoxyphenyl)tetrahydrofuran-3-yl)methyl 2-ethylbutanoate]",V (1.0 < a.r. < 1.50)
2,"COc1cc([C@H]2OC[C@H](Cc3ccc(-c4ccccc4)cc3)[C@@H]2CO)cc(OC)c1OC [Example 9, ((2S,3R,4R)-4-([1,1′-biphenyl]-4-ylmethyl)-2-(3,4,5-trimethoxyphenyl)-tetrahydrofuran-3-yl)methanol]",AA (a.r. ≧ 2.0)
3,"C/C=C(/C)C(=O)OC[C@H]1[C@@H](Cc2ccc(OC)cc2)CO[C@@H]1c1ccccc1 [Comparative Example 29, (Z)-((2S,3R,4R)-4-(4-methoxybenzyl)-2-phenyltetrahydrofuran-3-yl)methyl 2-methylbut-2-enoate]",V (1.0 < a.r. < 1.50)
4,"COc1cc([C@H]2OC[C@H](Cc3ccccc3)[C@@H]2CO)cc(OC)c1OC [Example 7, ((2S,3R,4R)-4-benzyl-2-(3,4,5-trimethoxyphenyl)tetrahydrofuran-3-yl)methanol]",AAA (a.r. ≧ 5.0)
5,"C/C=C(/C)C(=O)OC[C@H]1[C@@H](Cc2ccc(OC)c(OC)c2)CO[C@@H]1c1ccc(OC)cc1 [Comparative Example 28, (Z)-((2S,3R,4R)-4-(3,4-dimethoxybenzyl)-2-(4-methoxyphenyl)tetrahydrofuran-3-yl)methyl 2-methylbut-2-enoate]",V (1.0 < a.r. < 1.50)
6,"C/C=C(/C)C(=O)OC[C@H]1[C@@H](Cc2ccc(C(F)(F)F)cc2)CO[C@@H]1c1ccccc1 [Example 16, (Z)-((2S,3R,4R)-2-phenyl-4-(4-(trifluoromethyl)benzyl)tetrahydrofuran-3-yl)-methyl 2-methylbut-2-enoate]",AAA (a.r. ≧ 5.0)
7,"COc1ccc(C[C@H]2CO[C@H](c3ccc(OC)c(OC)c3)[C@H]2COC(=O)C2CCCCC2)cc1OC [Comparative Example 37, ((2S,3R,4R)-4-(3,4-dimethoxybenzyl)-2-(3,4-dimethoxyphenyl)tetrahydrofuran-3-yl)methyl cyclohexanecarboxylate]",V (1.0 < a.r. < 1.50)
8,"COc1ccc(C[C@H]2CO[C@H](c3ccc(OC)c(OC)c3)[C@H]2COC(=O)c2ccc3ccccc3c2)cc1OC [Comparative Example 38, ((2S,3R,4R)-4-(3,4-dimethoxybenzyl)-2-(3,4-dimethoxyphenyl)tetrahydrofuran-3-yl)methyl 2-naphthoate]",V (1.0 < a.r. < 1.50)
9,"COc1ccc([C@H]2OC[C@H](Cc3ccc(C(F)(F)F)cc3)[C@@H]2CO)cc1OC [Example 4, ((2S,3R,4R)-2-(3,4-dimethoxyphenyl)-4-(4-(trifluoromethyl)benzyl)tetrahydro-furan-3-yl)methanol]",A (a.r. ≧ 1.50)
10,"COc1ccc([C@H]2OC[C@H](Cc3ccc(C(F)(F)F)cc3)[C@@H]2COC(=O)c2ccccc2C)cc1OC [Comparative Example 40, ((2S,3R,4R)-2-(3,4-dimethoxyphenyl)-4-(4-(trifluoromethyl)benzyl)tetrahydro-furan-3-yl)methyl 2-methylbenzoate]",V (1.0 < a.r. < 1.50)
11,"COc1ccc(C[C@H]2CO[C@H](c3cc(OC)c(OC)c(OC)c3)[C@H]2COC(=O)c2ccccc2)cc1OC [Example 36, ((2S,3R,4R)-4-(3,4-dimethoxybenzyl)-2-(3,4,5-trimethoxyphenyl)tetrahydro-furan-3-yl)methyl benzoate]",A (a.r. ≧ 1.50)
12,"CCC(CC)C(=O)OC[C@H]1[C@@H](Cc2ccc(OC)c(OC)c2)CO[C@@H]1c1ccc(F)cc1 [Example 31, ((2S,3R,4R)-4-(3,4-dimethoxybenzyl)-2-(4-fluorophenyl)tetrahydrofuran-3-yl)-methyl 2-ethylbutanoate]",A (a.r. ≧ 1.50)
13,"CCCCc1ccc(C[C@H]2CO[C@H](c3ccc(OC)c(OC)c3)[C@H]2CO)cc1 [Example 5, ((2S,3R,4R)-4-(4-butylbenzyl)-2-(3,4-dimethoxyphenyl)tetrahydrofuran-3-yl)-methanol]",AA (a.r. ≧ 2.0)
14,"C/C=C(/C)C(=O)OC[C@H]1[C@@H](Cc2ccc(C(F)(F)F)cc2)CO[C@@H]1c1ccc(F)cc1 [Example 15, (Z)-((2S,3R,4R)-2-(4-fluorophenyl)-4-(4-(trifluoromethyl)benzyl)tetrahydro-furan-3-yl)methyl 2-methylbut-2-enoate]",AAA (a.r. ≧ 5.0)
15,"C/C=C(/C)C(=O)OC[C@H]1[C@@H](Cc2ccc(OC)cc2)CO[C@@H]1c1ccc(F)cc1 [Comparative Example 30, (Z)-((2S,3R,4R)-2-(4-fluorophenyl)-4-(4-methoxybenzyl)tetrahydrofuran-3-yl)-methyl 2-methylbut-2-enoate]",V (1.0 < a.r. < 1.50)
16,"COc1ccc(C[C@H]2CO[C@H](c3ccc(OC)c(OC)c3)[C@H]2COC(=O)/C=C/c2ccccc2)cc1OC [Example 24, ((2S,3R,4R)-4-(3,4-dimethoxybenzyl)-2-(3,4-dimethoxyphenyl)tetrahydrofuran-3-yl)methyl cinnamate]",AA (a.r. ≧ 2.0)
17,"C/C=C(/C)C(=O)OC[C@H]1[C@@H](Cc2ccc(C(C)(C)C)cc2)CO[C@@H]1c1ccc(OC)c(OC)c1 [Example 10, (Z)-((2S,3R,4R)-4-(4-(tert-butyl)benzyl)-2-(3,4-dimethoxyphenyl)tetrahydro-furan-3-yl)methyl 2-methylbut-2-enoate]",AA (a.r. ≧ 2.0)
18,"COc1ccc(C[C@H]2CO[C@H](c3cc(OC)c(OC)c(OC)c3)[C@H]2COC(=O)C=C(C)C)cc1OC [Example 19, ((2S,3R,4R)-4-(3,4-dimethoxybenzyl)-2-(3,4,5-trimethoxyphenyl)tetrahydro-furan-3-yl)methyl 3-methylbut-2-enoate]",AAA (a.r. ≧ 5.0)
19,"C/C=C(/C)C(=O)OC[C@H]1[C@@H](Cc2ccc(CCCC)cc2)CO[C@@H]1c1ccc(OC)c(OC)c1 [Example 13, (Z)-((2S,3R,4R)-4-(4-butylbenzyl)-2-(3,4-dimethoxyphenyl)tetrahydrofuran-3-yl)methyl 2-methylbut-2-enoate]",AAA (a.r. ≧ 5.0)
20,"COc1ccc([C@H]2OC[C@H](Cc3cccc4ccccc34)[C@@H]2CO)cc1OC [Example 3, ((2S,3R,4R)-2-(3,4-dimethoxyphenyl)-4-(naphthalen-1-ylmethyl)tetrahydro-furan-3-yl)methanol]",AA (a.r. ≧ 2.0)
21,"C/C=C/C(=O)OC[C@H]1[C@@H](Cc2ccc(OC)c(OC)c2)CO[C@@H]1c1ccc(OC)c(OC)c1 [Example 23, (E)-((2S,3R,4R)-4-(3,4-dimethoxybenzyl)-2-(3,4-dimethoxyphenyl)tetrahydro-furan-3-yl)methyl but-2-enoate]",AA (a.r. ≧ 2.0)
22,"COc1cc([C@H]2OC[C@H](Cc3ccc(C(C)(C)C)cc3)[C@@H]2CO)cc(OC)c1OC [Comparative Example 13, ((2S,3R,4R)-4-(4-(tert-butyl)benzyl)-2-(3,4,5-trimethoxyphenyl)tetrahydrofuran-3-yl)methanol]",V (1.0 < a.r. < 1.50)
23,"C/C=C(/C)C(=O)OC[C@H]1[C@@H](Cc2ccc(C(C)=O)cc2)CO[C@@H]1c1cc(OC)c(OC)c(OC)c1 [Example 21, (Z)-((2S,3R,4R)-4-(4-acetylbenzyl)-2-(3,4,5-trimethoxyphenyl)tetrahydrofuran-3-yl)methyl 2-methylbut-2-enoate]",AA (a.r. ≧ 2.0)
